Test results reported in patent US11840686B2, “Modulation of prekallikrein (PKK) expression” (Ionis Pharmaceuticals, Inc., priority 2013, dated 2023).
pIC50: −log10 of the molar value. Strand notation (5' to 3'): a small letter for the sugar, then the base; units joined by * are phosphorothioate-linked, units joined directly phosphodiester-linked; [ ] holds rarer units or linkages, { } end groups; capitals alone tell only the bases. e = 2'-O-(2-methoxyethyl) (MOE); [5mC] = 5-methylcytosine; d = 2'-deoxy (DNA)

Legend:
human PKK mRNA [1] = assay: Dose-dependent antisense inhibition of human PKK in HepaRG cells, 0.19-5.00 uM (Example 5); type: cell-based; conditions: for percent inhibition of PKK mRNA, 0.19 μM: 0.19 μM antisense oligonucleotide; for percent inhibition of PKK mRNA, 0.56 μM: 0.56 μM antisense oligonucleotide; for percent inhibition of PKK mRNA, 1.67 μM: 1.67 μM antisense oligonucleotide; for percent inhibition of PKK mRNA, 5.00 μM: 5.00 μM antisense oligonucleotide
In short: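 HepaRG cells (20,000/well) were electroporated with antisense oligonucleotide at 0.19, 0.56, 1.67 and 5.00 μM and treated for about 16 hours. PKK mRNA was quantified by qRT-PCR with primer probe set RTS3454, normalised to RIBOGREEN total RNA, and IC50 was derived per oligonucleotide.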

human PKK mRNA [2] = assay: Antisense inhibition of human PKK mRNA in HepaRG cells, 5,000 nM (Example 2); type: cell-based
In short: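 HepaRG cells, 20,000 per well, were electroporated with 5,000 nM MOE gapmer (phosphorothioate, 5-methylcytosine) and incubated about 24 hours. PKK mRNA was quantified by qRT-PCR with primer probe set RTS3454, normalized to RIBOGREEN total RNA, and expressed as percent inhibition versus untreated controls.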

[3] = HepaRG cells, electroporation, approximately 16 hours, Table 37
[4] = 4 point dose response, HepaRG cells, Table 37
[5] = HepaRG cells, electroporation, approximately 16 hours, Table 40
[6] = HepaRG cells, electroporation, approximately 16 hours, Table 36
[7] = 4 point dose response, HepaRG cells, Table 36
[8] = HepaRG cells, electroporation, approximately 16 hours, Table 41
[9] = 4 point dose response, HepaRG cells, Table 41
[10] = Table 34, HepaRG, electroporation, ~16 h
[11] = Table 34, PKK mRNA, HepaRG, electroporation, ~16 h
[12] = Table 13, human PKK mRNA in HepaRG cells, 5-10-5 gapmers
[13] = HepaRG cells, electroporation, approximately 16 hours, Table 39

Substance: 546214 (antisense eG*eA*eG*eA*eA*d[5mC]*d[5mC]*d[5mC]*dT*dG*dG*d[5mC]*dA*dA*d[5mC]*eA*eT*e[5mC]*e[5mC]*eA) [compound 546214]
- percent inhibition of PKK at 0.19 μM (human PKK mRNA [1]; [3]): 0%
- percent inhibition of PKK at 0.56 μM (human PKK mRNA [1]; [3]): 0%
- percent inhibition of PKK at 1.67 μM (human PKK mRNA [1]; [3]): 68%
- percent inhibition of PKK at 5.00 μM (human PKK mRNA [1]; [3]): 85%
- pIC50 (human PKK mRNA [1]; [4]): 5.89
- % inhibition (human PKK mRNA [2]; Table 7, HepaRG cells, electroporation with 5,000 nM antisense oligonucleotide, approx. 24 hours, PKK mRNA by RT-PCR (RTS3454), relative to untreated control cells): 88%

Substance: 548743 (DNA e[5mC]*eA*e[5mC]*eT*dG*dT*dA*d[5mC]*dT*dA*dG*dT*dT*eT*e[5mC]*e[5mC]*eT; antisense) [compound 548743]
- percent inhibition of PKK at 0.19 μM (human PKK mRNA [1]; [5]): 25%
- percent inhibition of PKK at 0.56 μM (human PKK mRNA [1]; [5]): 57%
- percent inhibition of PKK at 1.67 μM (human PKK mRNA [1]; [5]): 73%
- percent inhibition of PKK at 5.00 μM (human PKK mRNA [1]; [5]): 88%
- pIC50 (human PKK mRNA [1]; 4 point dose response, HepaRG cells, Table 40): 6.30
- percent inhibition of PKK mRNA, 0.19 μM (human PKK mRNA [1]; HepaRG cells): 22%
- percent inhibition of PKK mRNA, 0.56 μM (human PKK mRNA [1]; HepaRG cells): 47%
- percent inhibition of PKK mRNA, 1.67 μM (human PKK mRNA [1]; HepaRG cells): 74%
- percent inhibition of PKK mRNA, 5.00 μM (human PKK mRNA [1]; HepaRG cells): 96%
- pIC50 (human PKK mRNA [1]; HepaRG cells, 0.19-5.00 μM): 6.22
- % inhibition (human PKK mRNA [2]; human PKK mRNA, HepaRG cells, 5,000 nM antisense oligonucleotide, Table 18): 80%

Substance: 547298 (antisense eT*eT*eG*eG*eG*dT*dG*dG*dA*dA*dT*dG*dT*dG*d[5mC]*eA*e[5mC]*e[5mC]*eT*e[5mC]) [compound 547298]
- percent inhibition of PKK at 0.19 μM (human PKK mRNA [1]; [6]): 32%
- percent inhibition of PKK at 0.56 μM (human PKK mRNA [1]; [6]): 61%
- percent inhibition of PKK at 1.67 μM (human PKK mRNA [1]; [6]): 74%
- percent inhibition of PKK at 5.00 μM (human PKK mRNA [1]; [6]): 90%
- pIC50 (human PKK mRNA [1]; [7]): 6.40
- percent inhibition of PKK mRNA, 0.19 μM (human PKK mRNA [1]; HepaRG cells): 0%
- percent inhibition of PKK mRNA, 0.56 μM (human PKK mRNA [1]; HepaRG cells): 12%
- percent inhibition of PKK mRNA, 1.67 μM (human PKK mRNA [1]; HepaRG cells): 67%
- percent inhibition of PKK mRNA, 5.00 μM (human PKK mRNA [1]; HepaRG cells): 87%
- pIC50 (human PKK mRNA [1]; HepaRG cells, 0.19-5.00 μM): 5.77
- % inhibition (human PKK mRNA [2]; HepaRG cells, electroporation with 5,000 nM antisense oligonucleotide, approximately 24 hours, PKK mRNA by RT-PCR (RTS3454), relative to untreated control cells, Table 5 experiment): 90%

Substance: 546827 (e[5mC]*eA*eG*eT*eA*dT*d[5mC]*dA*d[5mC]*dT*dG*dT*dA*d[5mC]*dT*eA*eG*eT*eT*eT; antisense) [compound 546827]
- percent inhibition of PKK at 5.00 μM (human PKK mRNA [1]; [8]): 96%
- percent inhibition of PKK at 0.19 0μM (human PKK mRNA [1]; [8]): 23%
- percent inhibition of PKK at 0.56 0μM (human PKK mRNA [1]; [8]): 74%
- percent inhibition of PKK at 1.67 1μM (human PKK mRNA [1]; [8]): 98%
- pIC50 (human PKK mRNA [1]; [9]): 6.40
- percent inhibition of PKK at 0.19 μM (human PKK mRNA [1]; [10]): 32%
- percent inhibition of PKK at 0.56 μM (human PKK mRNA [1]; [10]): 70%
- percent inhibition of PKK at 1.67 μM (human PKK mRNA [1]; [10]): 84%
- percent inhibition of PKK at 5.00 μM (human PKK mRNA [1]; [10]): 90%
- pIC50 (human PKK mRNA [1]; [11]): 6.52
- % inhibition (human PKK mRNA [2]; [12]): 98%

Substance: 546846 (e[5mC]*eT*eG*eT*e[5mC]*d[5mC]*dT*dA*dT*dA*dT*d[5mC]*dA*d[5mC]*dT*eG*eT*e[5mC]*e[5mC]*eT; antisense) [compound 546846]
- percent inhibition of PKK at 0.19 0μM (human PKK mRNA [1]; [8]): 26%
- percent inhibition of PKK at 0.56 0μM (human PKK mRNA [1]; [8]): 49%
- percent inhibition of PKK at 1.67 1μM (human PKK mRNA [1]; [8]): 85%
- pIC50 (human PKK mRNA [1]; [9]): 6.30
- percent inhibition of PKK at 0.19 μM (human PKK mRNA [1]; [10]): 36%
- percent inhibition of PKK at 0.56 μM (human PKK mRNA [1]; [10]): 45%
- percent inhibition of PKK at 1.67 μM (human PKK mRNA [1]; [10]): 71%
- percent inhibition of PKK at 5.00 μM (human PKK mRNA [1]; [10]): 82%
- pIC50 (human PKK mRNA [1]; [11]): 6.30
- % inhibition (human PKK mRNA [2]; [12]): 95%

Substance: 547633 (antisense eA*eT*e[5mC]*eA*e[5mC]*dT*dG*dT*d[5mC]*d[5mC]*dT*dA*dT*dA*dT*e[5mC]*eA*e[5mC]*eT*e[5mC]) [compound 547633]
- percent inhibition of PKK at 0.19 μM (human PKK mRNA [1]; [13]): 12%
- percent inhibition of PKK at 0.56 μM (human PKK mRNA [1]; [13]): 46%
- percent inhibition of PKK at 1.67 μM (human PKK mRNA [1]; [13]): 78%
- pIC50 (human PKK mRNA [1]; 4 point dose response, HepaRG cells, Table 39): 6.15
- % inhibition (human PKK mRNA [2]; human PKK mRNA, HepaRG cells, 5-10-5 motif oligonucleotides targeting SEQ ID NO: 1 and 10): 87%

Substance: 547575 (eG*eG*eG*eA*eA*dA*d[5mC]*dT*d[5mC]*dT*dT*dT*d[5mC]*d[5mC]*dT*e[5mC]*eG*e[5mC]*e[5mC]*e[5mC]; antisense) [compound 547575]
- percent inhibition of PKK at 0.19 μM (human PKK mRNA [1]; [3]): 0%
- percent inhibition of PKK at 0.56 μM (human PKK mRNA [1]; [3]): 34%
- percent inhibition of PKK at 1.67 μM (human PKK mRNA [1]; [3]): 82%
- percent inhibition of PKK at 5.00 μM (human PKK mRNA [1]; [3]): 93%
- pIC50 (human PKK mRNA [1]; [4]): 5.96
- % inhibition (human PKK mRNA [2]; [12]): 89%

Substance: 546986 (e[5mC]*eA*eG*eG*eA*dT*dA*dG*dA*dA*d[5mC]*dT*dG*dA*dT*eG*eG*eT*e[5mC]*e[5mC]; antisense) [compound 546986]
- percent inhibition of PKK at 0.19 μM (human PKK mRNA [1]; [6]): 31%
- percent inhibition of PKK at 0.56 μM (human PKK mRNA [1]; [6]): 49%
- percent inhibition of PKK at 1.67 μM (human PKK mRNA [1]; [6]): 77%
- percent inhibition of PKK at 5.00 μM (human PKK mRNA [1]; [6]): 89%
- pIC50 (human PKK mRNA [1]; [7]): 6.30
- percent inhibition of PKK mRNA, 0.19 μM (human PKK mRNA [1]; HepaRG cells): 7%
- percent inhibition of PKK mRNA, 0.56 μM (human PKK mRNA [1]; HepaRG cells): 28%
- percent inhibition of PKK mRNA, 1.67 μM (human PKK mRNA [1]; HepaRG cells): 69%
- percent inhibition of PKK mRNA, 5.00 μM (human PKK mRNA [1]; HepaRG cells): 86%
- pIC50 (human PKK mRNA [1]; HepaRG cells, 0.19-5.00 μM): 5.96
- % inhibition (human PKK mRNA [2]; HepaRG cells, 5,000 nM antisense oligonucleotide, 5-10-5 gapmers, Table 16): 91%
